Measurements from patent publication US8822433B2, “Complex combining an organic silicon derivative with hyaluronic and acid calibrated fragments, for preventive and repairing action of cutaneous damages” (Exsymol S.A.M., priority 2008, dated 2014).

Tests used:
[1] = test system: reconstructed human epidermis model (RHE) keratinocytes; assay: Ki67 immunotracking of cell proliferation on reconstructed human epidermis (tests 1 and 4); assay type: cell-based; conditions: for % cells expressing Ki67/number of total cells (% in relation to the control): vs PBS control
Description: (§1) As purely an indication, the invention is hereafter illustrated by the following tests above described in the specification (tests 1 to 3), and a comparative study (test 4). In tests 1, 2 and 4, the experimental studies have been carried out on a reconstructed human epidermis model (RHE, supplier: SkinEthic®) whose interest is a strong homology with human epidermis.
(§2) The culture of RHE consisted in placing them in a “MCDB 153” growth medium (supplier : SkinEthic®) containing […] of insulin, 1.5 mM of CaCl2 and […] of gentamycine, for 24 hours at 37° C. and 5% CO2.
The observation of cellular proliferation is achieved with the immunotracking technique (Gerdes and al., Int. J. Cancer (1983), vol. 31, pp. 13-20) by using the “Ki67” cell proliferation tracer, for the three following configurations (after a 100 1 twice-daily deposit on RHE): • case 1: PBS buffer solution (control) • case 2: HA fragments 150-600 kDa (concentrations 2 and 5%) • case 3: MSH complex (concentrations 2 and 5%)
Identically to the here-above test 1, keratinocytes' cellular proliferation is observed on reconstructed human epidermis RHE (with the immunotracking technique) for: • the MSH complex according to the invention (based on 150-600 kDa HA fragments) • the dimethylsilanediol hyaluronate marketed by the applicant under the “D.S.H. CN®” brand mark. • D.S.H. CN® is an organo-silicon product resulting from the combination of dimethylsilanediol with hyaluronic acid of high molecular weight (1500 to 2200 kDa HA fragments).

IL1α = assay: ELISA dosage of pro-inflammatory interleukin IL1 in RHE culture supernatant (test 2); assay type: cell-based, human; conditions: for IL1α quantity: RHE supernatant after 24 hours of treatment
Description: as §1, §2
(§3) The culture of RHE is identical to the one of the herebefore test 1. The dosage of the IL1 and IL8 pro-inflammatory interleukines is achieved on a supernatant resulting from culture medium after 24 hours of treatment, with the help of ELISA dosage kits (R&D System Quantikine Immunoassay, D800C, DTA00C and DLA50), and for identical configurations to those of the above test 1.

IL8 = assay: ELISA dosage of pro-inflammatory interleukin IL8 in RHE culture supernatant (test 2); assay type: cell-based, human; conditions: for IL8 quantity: RHE supernatant after 24 hours of treatment
Description: as §1, §2, §3

bovine hyaluronidases = assay: Deterioration kinetic with hyaluronidases, agarose gel electrophoresis (test 3); assay type: in vitro ADME; conditions: 5, 15 and 30 min reaction at 37° C.; compared to fragmented HA non combined
Description: The experimental study consisted in measuring the deterioration kinetic of the MSH complex according to the invention submitted in vitro to bovine hyaluronidases, by electrophoresis on agarose gel. 10 1 of 1 mg/ml hyaluronidases are mixed to 50 1 of complex in a PBS buffer solution during 30 minutes at 37° C.
Successively at 5, 15 and 30 minutes, 10 1 of reaction mixture are taken, then heated at 95° C. in order to stop the enzymatic reaction. These 10 1 are then deposited on an agarose gel and a suitable stain (Stains all®) is used for the electrophoresis disclosure.

monomethylsilanetriol combined with one or several hyaluronic acid fragments of molecular weight between 150 and 600 kDa [MSH complex]
cytostimulation ([1]; compared to non combined fragmented HA): potentiated cytostimulation
% cells expressing Ki67/number of total cells (% in relation to the control) ([1]; concentration 2.5%, twice-daily deposit, three independent experiments): +14 (±1.0) %
% cells expressing Ki67/number of total cells (% in relation to the control) ([1]; concentration 5%, twice-daily deposit, three independent experiments): +63 (±0.5) %
% cells expressing Ki67/number of total cells (% in relation to the control) ([1]; test 4 (Table 4), concentration 5%): +69.5 (±3.1) %
induction of pro-inflammatory cytokines (IL1α; RHE, 24 hours, compared with control, IL1 and IL8): No significant induction
IL1α quantity (IL1α; concentration 2.5%): 3.5 (±1.8) pg/ml
IL1α quantity (IL1α; concentration 5%): 3.4 (±0.8) pg/ml
IL8 quantity (IL8; concentration 2.5%): 20.1 (±7.2) pg/ml
IL8 quantity (IL8; concentration 5%): 34.8 (±13.7) pg/ml
IL8 type-interleukines' rate (IL8; in relation to the control and to the non combined HA fragment): reduction
distribution of HA with a high molecular weight after hyaluronidase treatment (bovine hyaluronidases): more important distribution of HA with a high molecular weight
